Data reported in patent publication US20080200461A1, “MODULATORS OF ACETYL-COENZYME A CARBOXYLASE AND METHODS OF USE THEREOF” (Cropsolution, Inc., priority 2007, published 2008).

Biological target: Ustilago maydis K53R ACC (Mycosarcoma maydis, UniProt A0A0D1DYD5, K53R)
Experiment: biochemical
Type: biochemical

CC[N+](CC)(CCCCN(Cc1cc(C)cc(C)c1)Cc1cc(C)cc(C)c1)Cc1cc(C)cc(C)c1.[Br-] [Compound 28, Diethyl(3,5-dimethylbenzyl)[bis-(3,5-dimethylbenzyl)aminobutyl]ammonium formate]
IC50: 52 µM
